Here are results for 18 compounds from patent US10259810B2, “N-sulfonylated pyrazolo[3,4-b]pyridin-6-carboxamides and method of use” (AbbVie S.à.r.l., priority 2015, dated 2019).

Bounds are passed on as bounds.

Experiment [1] has as its target T1, ΔF508-CFTR (Homo sapiens, UniProt P13569, DEL508-508).
T1 construct: host or cells: CFBE41o-, doxycycline-inducible
In words: CFTR cell surface levels using HRP-tagged ΔF508-CFTR expressing CFBE cells, intrinsic corrector capacity. Type of experiment: cell-based. Also on record: % Activation: concentration or dose not given beside the values. The method, boiled down:
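Surface ΔF508-CFTR was measured as HRP chemiluminescence from an extracellular-loop-4 tag, expressed as percent activity between DMSO and a […] corrector control.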

Experiment [2] concerns the target T1, ΔF508-CFTR. In words: CFTR cell surface levels using HRP-tagged ΔF508-CFTR expressing CFBE cells, in the presence of a co-corrector. Type of experiment: cell-based. The method, boiled down: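 Chemiluminescent read-out of surface HRP (15 min, dark) after PBS washes. Activity is normalized as 100×(sample−DMSO)/(3 μM co-corrector alone−DMSO).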
[3] abbreviates: HRP-tagged ΔF508-CFTR expressing CFBE41o- cells, compound alone (intrinsic corrector capacity), 20 hours at 33° C.
Setting [4] is: HRP-tagged ΔF508-CFTR expressing CFBE41o- cells, compound alone (intrinsic corrector capacity), 20 hours at 33° C., read-out: EC50.
The mark [5] stands for this setting: HRP-tagged ΔF508-CFTR CFBE cells, in the presence of 3 μM co-corrector.
The mark [6] stands for this setting: HRP-tagged ΔF508-CFTR CFBE cells, in the presence of 3 μM co-corrector, read-out: EC50.

T1 sequence (P13569 with tags, fused parts or gaps DEL508-508): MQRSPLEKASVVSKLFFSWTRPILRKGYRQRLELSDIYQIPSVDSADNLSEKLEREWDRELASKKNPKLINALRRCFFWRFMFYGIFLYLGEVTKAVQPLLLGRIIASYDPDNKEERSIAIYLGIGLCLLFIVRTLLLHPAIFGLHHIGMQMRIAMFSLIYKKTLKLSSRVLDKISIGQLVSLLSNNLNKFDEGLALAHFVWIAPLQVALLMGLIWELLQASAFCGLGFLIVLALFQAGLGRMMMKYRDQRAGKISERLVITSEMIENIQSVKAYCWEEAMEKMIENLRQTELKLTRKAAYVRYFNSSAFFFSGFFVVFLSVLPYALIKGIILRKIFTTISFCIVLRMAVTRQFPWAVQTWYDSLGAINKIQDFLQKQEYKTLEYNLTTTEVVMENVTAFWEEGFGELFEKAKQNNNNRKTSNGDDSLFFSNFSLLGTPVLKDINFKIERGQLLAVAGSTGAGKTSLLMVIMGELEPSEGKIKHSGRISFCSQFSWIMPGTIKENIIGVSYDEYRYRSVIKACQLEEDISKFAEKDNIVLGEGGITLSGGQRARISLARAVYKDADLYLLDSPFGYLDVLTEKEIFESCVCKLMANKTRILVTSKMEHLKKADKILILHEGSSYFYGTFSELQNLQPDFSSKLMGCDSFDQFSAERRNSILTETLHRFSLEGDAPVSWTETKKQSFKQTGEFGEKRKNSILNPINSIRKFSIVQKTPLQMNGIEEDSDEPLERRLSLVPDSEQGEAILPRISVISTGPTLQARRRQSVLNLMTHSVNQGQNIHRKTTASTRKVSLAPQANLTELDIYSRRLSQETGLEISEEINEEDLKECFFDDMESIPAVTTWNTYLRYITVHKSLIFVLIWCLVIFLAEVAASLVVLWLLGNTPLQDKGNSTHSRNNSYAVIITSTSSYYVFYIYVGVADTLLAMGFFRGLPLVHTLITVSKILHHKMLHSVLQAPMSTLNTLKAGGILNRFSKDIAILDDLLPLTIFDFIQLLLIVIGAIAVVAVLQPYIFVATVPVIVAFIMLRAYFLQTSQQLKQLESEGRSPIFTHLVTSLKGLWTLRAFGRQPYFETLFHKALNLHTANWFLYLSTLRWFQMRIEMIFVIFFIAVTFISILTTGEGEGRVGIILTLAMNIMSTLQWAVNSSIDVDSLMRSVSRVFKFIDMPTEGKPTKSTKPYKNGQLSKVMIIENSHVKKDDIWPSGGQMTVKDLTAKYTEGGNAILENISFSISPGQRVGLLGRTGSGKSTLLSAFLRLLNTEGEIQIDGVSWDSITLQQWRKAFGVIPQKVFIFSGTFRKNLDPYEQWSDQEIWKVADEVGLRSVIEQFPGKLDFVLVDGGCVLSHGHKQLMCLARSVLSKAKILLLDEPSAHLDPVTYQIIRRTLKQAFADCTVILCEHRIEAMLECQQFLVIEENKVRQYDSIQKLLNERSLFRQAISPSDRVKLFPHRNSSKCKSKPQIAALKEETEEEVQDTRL

With `CN(C)S(=O)(=O)NC(=O)c1cc(C2CCN(C3CCOCC3)CC2)c2c(C3CCC3)nn(-c3ccc(F)cc3)c2n1` [Compound 612, 3-cyclobutyl-N-(dimethylsulfamoyl)-1-(4-fluorophenyl)-4-[1-(oxan-4-yl)piperidin-4-yl]-1H-pyrazolo[3,4-b]pyridine-6-carboxamide], the “% Activation” value at ΔF508-CFTR [1] (setting [3]) is reported as 108.7%; on ΔF508-CFTR [2] (setting [5]), 320.8%. Further, the EC50 was 876 nM at ΔF508-CFTR [1] (setting [4]) and 3330 nM on ΔF508-CFTR [2] (setting [6]).

For `CN(C)S(=O)(=O)NC(=O)c1cc(C2CCN(CC3CC3)CC2)c2c(C3CCC3)nn(-c3ccc(F)cc3)c2n1` [Compound 613, 3-cyclobutyl-4-[1-(cyclopropylmethyl)piperidin-4-yl]-N-(dimethylsulfamoyl)-1-(4-fluorophenyl)-1H-pyrazolo[3,4-b]pyridine-6-carboxamide], the figures for the “% Activation” value at ΔF508-CFTR [1] (setting [3]) and at ΔF508-CFTR [2] (setting [5]) were 30.09% and 152.9%, respectively. Also, the EC50 at ΔF508-CFTR [2] (setting [6]) is ≥ 10000 nM.

As for `CN(C)S(=O)(=O)NC(=O)c1cc(N2CCC(N3CCN(C4COC4)CC3)CC2)c2c(C3CCC3)nn(-c3ccc(F)cc3)c2n1` [Compound 615, 3-cyclobutyl-N-(dimethylsulfamoyl)-1-(4-fluorophenyl)-4-{4-[4-(oxetan-3-yl)piperazin-1-yl]piperidin-1-yl}-1H-pyrazolo[3,4-b]pyridine-6-carboxamide], the “% Activation” value at ΔF508-CFTR [1] (setting [3]) is given as 255.3%; on ΔF508-CFTR [2] (setting [5]), 450.85%. Moreover, the concentration giving a half-maximal response (EC50) at ΔF508-CFTR [1] (setting [4]) is 482 nM; on ΔF508-CFTR [2] (setting [6]), 130 nM.

`CN(C)S(=O)(=O)NC(=O)c1cc(OCC2CCN(C3CC3)CC2)c2c(C3CCC3)nn(-c3ccc(F)cc3)c2n1` [Compound 616, 3-cyclobutyl-4-[(1-cyclopropylpiperidin-4-yl)methoxy]-N-(dimethylsulfamoyl)-1-(4-fluorophenyl)-1H-pyrazolo[3,4-b]pyridine-6-carboxamide]: the results for the “% Activation” value at ΔF508-CFTR [1] (setting [3]) and on ΔF508-CFTR [2] (setting [5]) were 144.05% and 341.15%, respectively. Moreover, the EC50 worked out at 348 nM on ΔF508-CFTR [1] (setting [4]) and 294 nM at ΔF508-CFTR [2] (setting [6]).

For the compound `CN(C)S(=O)(=O)NC(=O)c1cc(OCC2CCN(C3CCC3)CC2)c2c(C3CCC3)nn(-c3ccc(F)cc3)c2n1` [Compound 617, 3-cyclobutyl-4-[(1-cyclobutylpiperidin-4-yl)methoxy]-N-(dimethylsulfamoyl)-1-(4-fluorophenyl)-1H-pyrazolo[3,4-b]pyridine-6-carboxamide], the “% Activation” value at ΔF508-CFTR [1] (setting [3]) is given as 137.1%; on ΔF508-CFTR [2] (setting [5]), 324.25%. The figures for the EC50 on ΔF508-CFTR [1] (setting [4]) and at ΔF508-CFTR [2] (setting [6]) were 871 nM and 978 nM, respectively.

As to `CN(C)S(=O)(=O)NC(=O)c1cc(OCC2CCN(C3CCCCC3)CC2)c2c(C3CCC3)nn(-c3ccc(F)cc3)c2n1` [Compound 618, 3-cyclobutyl-4-[(1-cyclohexylpiperidin-4-yl)methoxy]-N-(dimethylsulfamoyl)-1-(4-fluorophenyl)-1H-pyrazolo[3,4-b]pyridine-6-carboxamide], the “% Activation” value on ΔF508-CFTR [1] (setting [3]) stood at 112.8%; at ΔF508-CFTR [2] (setting [5]), 295.9%. In addition, the EC50 on ΔF508-CFTR [1] (setting [4]) stood at 421 nM; at ΔF508-CFTR [2] (setting [6]), 702 nM.

For `CN(C)S(=O)(=O)NC(=O)c1cc(OCC2CCN(C3CCOCC3)CC2)c2c(C3CCC3)nn(-c3ccc(F)cc3)c2n1` [Compound 619, 3-cyclobutyl-N-(dimethylsulfamoyl)-1-(4-fluorophenyl)-4-{[1-(oxan-4-yl)piperidin-4-yl]methoxy}-1H-pyrazolo[3,4-b]pyridine-6-carboxamide], the “% Activation” value on ΔF508-CFTR [1] (setting [3]) amounted to 102.8%; on ΔF508-CFTR [2] (setting [5]), 277.25%. Besides, the EC50 on ΔF508-CFTR [1] (setting [4]) worked out at 680 nM; on ΔF508-CFTR [2] (setting [6]) it was 375 nM.

Take `CCOc1nccc(-n2nc(C3CCC3)c3c(N4CCC(N5CCOCC5)CC4)cc(C(=O)NS(=O)(=O)N(C)C)nc32)n1` [Compound 622, 3-cyclobutyl-N-(dimethylsulfamoyl)-1-(2-ethoxypyrimidin-4-yl)-4-[4-(morpholin-4-yl)piperidin-1-yl]-1H-pyrazolo[3,4-b]pyridine-6-carboxamide]: the “% Activation” value was 89.445% on ΔF508-CFTR [1] (setting [3]) and 251.25% on ΔF508-CFTR [2] (setting [5]). The values for the EC50 on ΔF508-CFTR [1] (setting [4]) and on ΔF508-CFTR [2] (setting [6]) were 568 nM and 309 nM, respectively.

Regarding `CC(C)Oc1nn(C2CCCCC2)c2nc(C(=O)NS(C)(=O)=O)cc(-c3ccc(C(=O)N4CC5CNCC5C4)cc3)c12` (stereo not drawn) [Compound 631, 1-cyclohexyl-4-[4-(hexahydropyrrolo[3,4-c]pyrrole-2(1H)-carbonyl)phenyl]-N-(methanesulfonyl)-3-[(propan-2-yl)oxy]-1H-pyrazolo[3,4-b]pyridine-6-carboxamide], the “% Activation” value at ΔF508-CFTR [1] (setting [3]) was 122.53%; on ΔF508-CFTR [2] (setting [5]), 352.63%. Also, the EC50 at ΔF508-CFTR [1] (setting [4]) came to 3340 nM; on ΔF508-CFTR [2] (setting [6]), 2990 nM.

Regarding `COC1CCN(Cc2ccc(-c3cc(C(=O)NS(C)(=O)=O)nc4c3c(OC(C)C)nn4C3CCCCC3)cc2)CC1` [Compound 635, 1-cyclohexyl-N-(methanesulfonyl)-4-{4-[(4-methoxypiperidin-1-yl)methyl]phenyl}-3-[(propan-2-yl)oxy]-1H-pyrazolo[3,4-b]pyridine-6-carboxamide], the “% Activation” value worked out at 216.38% on ΔF508-CFTR [1] (setting [3]) and 449.25% at ΔF508-CFTR [2] (setting [5]). In addition, the EC50 was determined as 155 nM on ΔF508-CFTR [1] (setting [4]) and 73.9 nM at ΔF508-CFTR [2] (setting [6]).

Turning to `CC(C)Oc1nn(C2CCCCC2)c2nc(C(=O)NS(C)(=O)=O)cc(-c3ccc(CN4CC5CN(C)CC5C4)cc3)c12` (stereo not drawn) [Compound 636, 1-cyclohexyl-N-(methanesulfonyl)-4-{4-[(5-methylhexahydropyrrolo[3,4-c]pyrrol-2(1H)-yl)methyl]phenyl}-3-[(propan-2-yl)oxy]-1H-pyrazolo[3,4-b]pyridine-6-carboxamide], the results for the “% Activation” value on ΔF508-CFTR [1] (setting [3]) and on ΔF508-CFTR [2] (setting [5]) were 182.7% and 388.85%, respectively. For the same compound, the EC50 on ΔF508-CFTR [1] (setting [4]) was 573 nM; on ΔF508-CFTR [2] (setting [6]), 434 nM.

Regarding `CC(C)Oc1nn(C2CCCCC2)c2nc(C(=O)NS(C)(=O)=O)cc(-c3ccc(C(=O)N4CC5CN(C)CC5C4)cc3)c12` (stereo not drawn) [Compound 637, 1-cyclohexyl-N-(methanesulfonyl)-4-[4-(5-methylhexahydropyrrolo[3,4-c]pyrrole-2(1H)-carbonyl)phenyl]-3-[(propan-2-yl)oxy]-1H-pyrazolo[3,4-b]pyridine-6-carboxamide], the “% Activation” value is 191.88% at ΔF508-CFTR [1] (setting [3]) and 413.4% on ΔF508-CFTR [2] (setting [5]). In addition, the values for the EC50 on ΔF508-CFTR [1] (setting [4]) and at ΔF508-CFTR [2] (setting [6]) were 2500 nM and 971 nM, respectively.

As for `CC(C)Oc1nn(C2CCCCC2)c2nc(C(=O)NS(C)(=O)=O)cc(-c3ccc(C4(C#N)CCN(C)CC4)cc3)c12` [Compound 639, 4-[4-(4-cyano-1-methylpiperidin-4-yl)phenyl]-1-cyclohexyl-N-(methanesulfonyl)-3-[(propan-2-yl)oxy]-1H-pyrazolo[3,4-b]pyridine-6-carboxamide], the EC50 worked out at 132 nM on ΔF508-CFTR [1] and 74.5 nM at ΔF508-CFTR [2].

On to `CC(C)Oc1nn(C2CCCCC2)c2nc(C(=O)NS(C)(=O)=O)cc(-c3ccc(C(=O)N4CC(N(C)C)C4)cc3)c12` [Compound 640, 1-cyclohexyl-4-{4-[3-(dimethylamino)azetidine-1-carbonyl]phenyl}-N-(methanesulfonyl)-3-[(propan-2-yl)oxy]-1H-pyrazolo[3,4-b]pyridine-6-carboxamide], for which the “% Activation” value is 203.62% on ΔF508-CFTR [1] (setting [3]) and 416.48% on ΔF508-CFTR [2] (setting [5]). Also, the EC50 is 175 nM on ΔF508-CFTR [1] (setting [4]) and 107 nM at ΔF508-CFTR [2] (setting [6]).

As for `CC(C)Oc1nn(C2CCCCC2)c2nc(C(=O)NS(C)(=O)=O)cc(-c3ccc(CN4CCN(C)CC45COC5)cc3)c12` [Compound 641, 1-cyclohexyl-N-(methanesulfonyl)-4-{4-[(8-methyl-2-oxa-5,8-diazaspiro[3.5]nonan-5-yl)methyl]phenyl}-3-[(propan-2-yl)oxy]-1H-pyrazolo[3,4-b]pyridine-6-carboxamide], the “% Activation” value on ΔF508-CFTR [1] (setting [3]) worked out at 205.35%; at ΔF508-CFTR [2] (setting [5]), 443.12%. In addition, the EC50 is 74.9 nM on ΔF508-CFTR [1] (setting [4]) and 46.3 nM at ΔF508-CFTR [2] (setting [6]).

Consider `CCN1CCN(Cc2ccc(-c3cc(C(=O)NS(C)(=O)=O)nc4c3c(OC(C)C)nn4C3CCCCC3)cc2)CC1` [Compound 642, 1-cyclohexyl-4-{4-[(4-ethylpiperazin-1-yl)methyl]phenyl}-N-(methanesulfonyl)-3-[(propan-2-yl)oxy]-1H-pyrazolo[3,4-b]pyridine-6-carboxamide], for which the “% Activation” value on ΔF508-CFTR [1] (setting [3]) worked out at 222%; on ΔF508-CFTR [2] (setting [5]), 430.9%. In addition, the EC50 was found to be 235 nM at ΔF508-CFTR [1] (setting [4]) and 97.3 nM on ΔF508-CFTR [2] (setting [6]).

Consider `CC(C)Oc1nn(C2CCCCC2)c2nc(C(=O)NS(C)(=O)=O)cc(-c3ccc(CN4CCC(N(C)C)CC4)cc3)c12` [Compound 643, 1-cyclohexyl-4-(4-{[4-(dimethylamino)piperidin-1-yl]methyl}phenyl)-N-(methanesulfonyl)-3-[(propan-2-yl)oxy]-1H-pyrazolo[3,4-b]pyridine-6-carboxamide], for which the entries for the “% Activation” value on ΔF508-CFTR [1] (setting [3]) and on ΔF508-CFTR [2] (setting [5]) were 181.65% and 445.25%, respectively. Further, the EC50 at ΔF508-CFTR [1] (setting [4]) is 506 nM; on ΔF508-CFTR [2] (setting [6]), 497 nM.

With `COC1CCN(C2CCN(c3cc(C(=O)NS(C)(=O)=O)nc4c3c(OC(C)C)nn4-c3ccc(F)cc3)CC2)CC1` [Compound 644, 1-(4-fluorophenyl)-N-(methanesulfonyl)-4-(4-methoxy[1,4'-bipiperidin]-1'-yl)-3-[(propan-2-yl)oxy]-1H-pyrazolo[3,4-b]pyridine-6-carboxamide], the “% Activation” value on ΔF508-CFTR [1] (setting [3]) was determined as 266.9%; at ΔF508-CFTR [2] (setting [5]), 529.95%. In addition, the results for the EC50 on ΔF508-CFTR [1] (setting [4]) and at ΔF508-CFTR [2] (setting [6]) were 253 nM and 160 nM, respectively.

Usually EC50 stands for the concentration at which the effect is half-maximal.
